Here are results for 34 compounds from patent US7524869B2, “Taxanes having a C10 ester substituent” (Florida State University Research Foundation, Inc., priority 2000, dated 2009).

pIC50: −log10 of the molar value.

The subject of this assay is HCT116. The assay can be described thus: In vitro cytotoxicity measured by the cell colony formation assay. It counts as cell-based. The conditions noted are these: HCT116 cells, 72 h drug incubation, colonies counted after 7 days; ID50 = drug concentration producing 50% inhibition of colony formation; read-out: IN VITRO ID 50 (nm) HCT116.
As for `CCCC(=O)O[C@H]1C(=O)[C@@]2(C)C([C@H](OC(=O)c3ccccc3)[C@]3(O)C[C@H](OC(=O)[C@H](O)[C@@H](NC(=O)OC(C)(C)C)c4ccsc4)C(C)=C1C3(C)C)[C@]1(OC(C)=O)CO[C@@H]1C[C@@H]2O` (stereo partly shown) [Compound 1011], the pIC50 was greater than 9.00.

As to `CCC(=O)O[C@H]1C(=O)[C@@]2(C)C([C@H](OC(=O)c3ccccc3)[C@]3(O)C[C@H](OC(=O)[C@H](O)[C@@H](NC(=O)OC(C)(C)C)c4ccc([N+](=O)[O-])cc4)C(C)=C1C3(C)C)[C@]1(OC(C)=O)CO[C@@H]1C[C@@H]2O` (stereo partly shown) [Compound 0602], the pIC50 was greater than 9.00.

In the case of `CC(=O)OC12COC1CC(O)C1(C)C(=O)C(OC(=O)c3cccs3)C3=C(C)C(OC(=O)C(O)C(NC(=O)OC(C)(C)C)c4cccnc4)CC(O)(C(OC(=O)c4ccccc4)C21)C3(C)C` (stereo not shown) [Compound 1948], the pIC50 is greater than 8.00.

Consider `CC(=O)OC12COC1CC(O)C1(C)C(=O)C(OC(=O)C(C)C)C3=C(C)C(OC(=O)C(O)C(C=C(C)C)NC(=O)OC(C)(C)C)CC(O)(C(OC(=O)c4ccccc4)C21)C3(C)C` (stereo not shown) [Compound 2226], for which the pIC50 was greater than 9.00.

In the case of `CC(=O)OC12COC1CC(O)C1(C)C(=O)C(OC(=O)c3ccco3)C3=C(C)C(OC(=O)C(O)C(NC(=O)OC(C)(C)C)c4ccco4)CC(O)(C(OC(=O)c4ccccc4)C21)C3(C)C` (stereo not shown) [Compound 2142], the pIC50 is greater than 9.00.

In the case of `C/C=C/C(=O)N[C@@H](c1ccoc1)[C@@H](O)C(=O)O[C@H]1C[C@@]2(O)[C@@H](OC(=O)c3ccccc3)C3[C@](C)(C(=O)[C@H](OC(=O)C4CC4)C(=C1C)C2(C)C)[C@@H](O)C[C@H]1OC[C@@]31OC(C)=O` (stereo partly shown) [Compound 4944], the pIC50 was greater than 9.00.

With `CCC(=O)O[C@H]1C(=O)[C@@]2(C)C([C@H](OC(=O)c3ccccc3)[C@]3(O)C[C@H](OC(=O)[C@H](O)[C@@H](NC(=O)OC(C)(C)C)c4ccco4)C(C)=C1C3(C)C)[C@]1(OC(C)=O)CO[C@@H]1C[C@@H]2O` (stereo partly shown) [Compound 0536], the pIC50 was greater than 9.00.

Regarding `CC(=O)O[C@@]12CO[C@@H]1C[C@H](O)[C@@]1(C)C(=O)[C@H](OC(=O)C=C(C)C)C3=C(C)[C@@H](OC(=O)[C@H](O)[C@@H](NC(=O)OC(C)(C)C)c4ccncc4)C[C@@](O)([C@@H](OC(=O)c4ccccc4)C12)C3(C)C` (stereo partly shown) [Compound 2472], the pIC50 was greater than 9.00.

In the case of `CC(=O)O[C@@]12CO[C@@H]1C[C@H](O)[C@@]1(C)C(=O)[C@H](OC(=O)C(C)C)C3=C(C)[C@@H](OC(=O)[C@H](O)[C@@H](NC(=O)OC(C)(C)C)c4cccs4)C[C@@](O)([C@@H](OC(=O)c4ccccc4)C12)C3(C)C` (stereo partly shown) [Compound 2287], the pIC50 is greater than 9.00.

Turning to `CCCC(=O)O[C@H]1C(=O)[C@@]2(C)C([C@H](OC(=O)c3ccccc3)[C@]3(O)C[C@H](OC(=O)[C@H](O)[C@@H](NC(=O)OC(C)C)c4ccco4)C(C)=C1C3(C)C)[C@]1(OC(C)=O)CO[C@@H]1C[C@@H]2O` (stereo partly shown) [Compound 3417], the pIC50 was greater than 9.00.

With `CC(=O)OC12COC1CC(O)C1(C)C(=O)C(OC(=O)c3cccs3)C3=C(C)C(OC(=O)C(O)C(NC(=O)OC(C)(C)C)C4CCC4)CC(O)(C(OC(=O)c4ccccc4)C21)C3(C)C` (stereo not shown) [Compound 1970], the pIC50 is greater than 8.00.

As for `CC(=O)O[C@@]12CO[C@@H]1C[C@H](O)[C@@]1(C)C(=O)[C@H](OC(=O)C3CC3)C3=C(C)[C@@H](OC(=O)[C@H](O)[C@@H](NC(=O)c4ccccc4)c4ccsc4)C[C@@](O)([C@@H](OC(=O)c4ccccc4)C12)C3(C)C` (stereo partly shown) [Compound 2838], the pIC50 is greater than 9.00.

As for `CCCC(=O)O[C@H]1C(=O)[C@@]2(C)C([C@H](OC(=O)c3ccccc3)[C@]3(O)C[C@H](OC(=O)[C@H](O)[C@@H](NC(=O)OC(C)(C)C)c4ccccn4)C(C)=C1C3(C)C)[C@]1(OC(C)=O)CO[C@@H]1C[C@@H]2O` (stereo partly shown) [Compound 0951], the pIC50 was greater than 9.00.

For `CC(=O)O[C@@]12CO[C@@H]1C[C@H](O)[C@@]1(C)C(=O)[C@H](OC(=O)C3CC3)C3=C(C)[C@@H](OC(=O)[C@H](O)[C@@H](NC(=O)OCC(C)C)c4ccco4)C[C@@](O)([C@@H](OC(=O)c4ccccc4)C12)C3(C)C` (stereo partly shown) [Compound 3102], the pIC50 was greater than 9.00.

`CCCC(=O)O[C@H]1C(=O)[C@@]2(C)C([C@H](OC(=O)c3ccccc3)[C@]3(O)C[C@H](OC(=O)[C@H](O)[C@@H](NC(=O)c4ccccc4)c4ccco4)C(C)=C1C3(C)C)[C@]1(OC(C)=O)CO[C@@H]1C[C@@H]2O` (stereo partly shown) [Compound 3204]: the pIC50 is greater than 9.00.

In the case of `CC(=O)OC12COC1CC(O)C1(C)C(=O)C(OC(=O)c3ccco3)C3=C(C)C(OC(=O)C(O)C(NC(=O)OC(C)(C)C)c4ccccn4)CC(O)(C(OC(=O)c4ccccc4)C21)C3(C)C` (stereo not shown) [Compound 2111], the pIC50 is greater than 9.00.

`C/C=C/C(=O)N[C@@H](c1ccco1)[C@@H](O)C(=O)O[C@H]1C[C@@]2(O)[C@@H](OC(=O)c3ccccc3)C3[C@](C)(C(=O)[C@H](OC(=O)C4CC4)C(=C1C)C2(C)C)[C@@H](O)C[C@H]1OC[C@@]31OC(C)=O` (stereo partly shown) [Compound 3971]: the pIC50 is greater than 9.00.

For `CCC(=O)O[C@H]1C(=O)[C@@]2(C)C([C@H](OC(=O)c3ccccc3)[C@]3(O)C[C@H](OC(=O)[C@H](O)[C@H](C=C(C)C)NC(=O)OC(C)(C)C)C(C)=C1C3(C)C)[C@]1(OC(C)=O)CO[C@@H]1C[C@@H]2O` (stereo partly shown) [Compound 0499], the pIC50 was greater than 9.00.

`CC(=O)O[C@@]12CO[C@@H]1C[C@H](O)[C@@]1(C)C(=O)[C@H](OC(=O)C(C)C)C3=C(C)[C@@H](OC(=O)[C@H](O)[C@@H](NC(=O)OC(C)(C)C)c4ccoc4)C[C@@](O)([C@@H](OC(=O)c4ccccc4)C12)C3(C)C` (stereo partly shown) [Compound 2273]: the pIC50 was greater than 9.00.

`CCCC(=O)O[C@H]1C(=O)[C@@]2(C)C([C@H](OC(=O)c3ccccc3)[C@]3(O)C[C@H](OC(=O)[C@H](O)[C@@H](NC(=O)OC(C)C)c4cccs4)C(C)=C1C3(C)C)[C@]1(OC(C)=O)CO[C@@H]1C[C@@H]2O` (stereo partly shown) [Compound 3909]: the pIC50 was greater than 9.00.

`CC(=O)O[C@@]12CO[C@@H]1C[C@H](O)[C@@]1(C)C(=O)[C@H](OC(=O)C=C(C)C)C3=C(C)[C@@H](OC(=O)[C@H](O)[C@@H](NC(=O)OC(C)(C)C)c4ccccn4)C[C@@](O)([C@@H](OC(=O)c4ccccc4)C12)C3(C)C` (stereo partly shown) [Compound 2464]: the pIC50 was greater than 9.00.

In the case of `CCC(=O)O[C@H]1C(=O)[C@@]2(C)C([C@H](OC(=O)c3ccccc3)[C@]3(O)C[C@H](OC(=O)[C@H](O)[C@@H](NC(=O)c4ccccc4)c4ccsc4)C(C)=C1C3(C)C)[C@]1(OC(C)=O)CO[C@@H]1C[C@@H]2O` (stereo partly shown) [Compound 0691], the pIC50 was greater than 9.00.

In the case of `C/C=C/C(=O)O[C@H]1C(=O)[C@@]2(C)C([C@H](OC(=O)c3ccccc3)[C@]3(O)C[C@H](OC(=O)[C@H](O)[C@H](C=C(C)C)NC(=O)OC(C)(C)C)C(C)=C1C3(C)C)[C@]1(OC(C)=O)CO[C@@H]1C[C@@H]2O` (stereo partly shown) [Compound 2332], the pIC50 was greater than 9.00.

Turning to `CC(=O)OC12COC1CC(O)C1(C)C(=O)C(OC(=O)c3cccs3)C3=C(C)C(OC(=O)C(O)C(NC(=O)OC(C)(C)C)c4ccccn4)CC(O)(C(OC(=O)c4ccccc4)C21)C3(C)C` (stereo not shown) [Compound 1883], the pIC50 was greater than 8.00.

With `CC(=O)O[C@@]12CO[C@@H]1C[C@H](O)[C@@]1(C)C(=O)[C@H](OC(=O)C3CC3)C3=C(C)[C@@H](OC(=O)[C@H](O)[C@@H](NC(=O)OC(C)(C)C)c4ccccn4)C[C@@](O)([C@@H](OC(=O)c4ccccc4)C12)C3(C)C` (stereo partly shown) [Compound 2802], the pIC50 is greater than 9.00.

Take `CCCC(=O)O[C@H]1C(=O)[C@@]2(C)C([C@H](OC(=O)c3ccccc3)[C@]3(O)C[C@H](OC(=O)[C@H](O)[C@@H](NC(=O)OC(C)(C)C)c4ccncc4)C(C)=C1C3(C)C)[C@]1(OC(C)=O)CO[C@@H]1C[C@@H]2O` (stereo partly shown) [Compound 0978]: the pIC50 is greater than 9.00.

For the compound `CC(=O)O[C@@]12CO[C@@H]1C[C@H](O)[C@@]1(C)C(=O)[C@H](OC(=O)C=C(C)C)C3=C(C)[C@@H](OC(=O)[C@H](O)[C@@H](NC(=O)OC(C)(C)C)c4ccco4)C[C@@](O)([C@@H](OC(=O)c4ccccc4)C12)C3(C)C` (stereo partly shown) [Compound 2488], the pIC50 is greater than 9.00.

Turning to `CC(=O)O[C@@]12CO[C@@H]1C[C@H](O)[C@@]1(C)C(=O)[C@H](OC(=O)C=C(C)C)C3=C(C)[C@@H](OC(=O)[C@H](O)[C@@H](NC(=O)OC(C)(C)C)c4ccoc4)C[C@@](O)([C@@H](OC(=O)c4ccccc4)C12)C3(C)C` (stereo partly shown) [Compound 2499], the pIC50 is greater than 9.00.

As for `CC(=O)OC12COC1CC(O)C1(C)C(=O)C(OC(=O)c3ccco3)C3=C(C)C(OC(=O)C(O)C(NC(=O)OC(C)(C)C)c4cccs4)CC(O)(C(OC(=O)c4ccccc4)C21)C3(C)C` (stereo not shown) [Compound 2164], the pIC50 is greater than 9.00.

In the case of `CCCC(=O)O[C@H]1C(=O)[C@@]2(C)C([C@H](OC(=O)c3ccccc3)[C@]3(O)C[C@H](OC(=O)[C@H](O)[C@@H](NC(=O)OCC)c4ccco4)C(C)=C1C3(C)C)[C@]1(OC(C)=O)CO[C@@H]1C[C@@H]2O` (stereo partly shown) [Compound 3693], the pIC50 is greater than 9.00.

As for `CC(=O)O[C@@]12CO[C@@H]1C[C@H](O)[C@@]1(C)C(=O)[C@H](OC(=O)C(C)C)C3=C(C)[C@@H](OC(=O)[C@H](O)[C@@H](NC(=O)OC(C)(C)C)c4ccco4)C[C@@](O)([C@@H](OC(=O)c4ccccc4)C12)C3(C)C` (stereo partly shown) [Compound 2269], the pIC50 was greater than 9.00.

With `CCCC(=O)O[C@H]1C(=O)[C@@]2(C)C([C@H](OC(=O)c3ccccc3)[C@]3(O)C[C@H](OC(=O)[C@H](O)[C@@H](NC(=O)OC(C)(C)C)c4cccnc4)C(C)=C1C3(C)C)[C@]1(OC(C)=O)CO[C@@H]1C[C@@H]2O` (stereo partly shown) [Compound 0966], the pIC50 was greater than 8.00.

For the compound `CCCC(=O)O[C@H]1C(=O)[C@@]2(C)C([C@H](OC(=O)c3ccccc3)[C@]3(O)C[C@H](OC(=O)[C@H](O)[C@@H](NC(=O)OCC(C)C)c4ccco4)C(C)=C1C3(C)C)[C@]1(OC(C)=O)CO[C@@H]1C[C@@H]2O` (stereo partly shown) [Compound 3957], the pIC50 is greater than 8.00.

As for `CCCC(=O)O[C@H]1C(=O)[C@@]2(C)C([C@H](OC(=O)c3ccccc3)[C@]3(O)C[C@H](OC(=O)[C@H](O)[C@@H](NC(=O)OCC(C)C)C4CC4)C(C)=C1C3(C)C)[C@]1(OC(C)=O)CO[C@@H]1C[C@@H]2O` (stereo partly shown) [Compound 4808], the pIC50 was greater than 8.00.
